Test: Human HepG2 cell viability assay in 384 well format
Format: toxicity, cell-based
Set-up: dose 125 nL, time 70.5 hour; concentration not given beside the values
Settings: HepG2 cells, read-out: Inhibition

Row | SMILES | cytotoxicity at 70.5 h [%]
1 | Cc1ccc(C2CCCN2CC(=O)N(CCC#N)c2ccccc2)cc1 (configuration not stated) | -7.81
2 | Cc1cnn(C2CN(CC(O)COCc3ccc4c(c3)OCO4)C2)c1 (configuration not stated) | -0.637
3 | CCS(=O)(=O)CC(=O)N1CCCC1c1noc(C2CC2)n1 (configuration not stated) | -8.04
4 | COC(=O)C(C)Sc1nnnn1C1CCOCC1 (configuration not stated) | -5.79
5 | Cc1nc(C)c(CNCc2nnc3n2CCCC3C(F)(F)F)s1 (configuration not stated) | -8.57
6 | COc1ccc(C(=O)NC2CC2)c(OC)c1 | -11.5
7 | COc1ncccc1NC(=O)N1CCCC1c1cc(C)no1 (configuration not stated) | -16.3
8 | CCNC(=O)NC(=O)CN1CCC(c2c[nH]c3ccc(OC)cc23)CC1 | 24.1
9 | CNC(=O)NC(=O)CSC(C)c1ccccc1F (configuration not stated) | -15.4
10 | CCOC(=O)NC(=O)CSC(C)c1ccccc1F (configuration not stated) | -14.4
11 | COc1ccc2[nH]cc(C3CCN(CCC(N)=O)CC3)c2c1 | -11.2
12 | Cc1cnn(Cc2cc(F)ccc2F)c1NC(=O)C1CCOCC1 | 1.07
13 | CCNC(=O)Nc1c(C)cnn1Cc1cc(F)ccc1F | -11.6
14 | CNC(=O)CCNC(=O)c1cc(Br)c2c(c1)OCCO2 | -6.67
15 | CCn1cc(C#N)c(=O)c2cc(Br)ccc21 | -13.9
16 | CC(=O)NCCNC(=O)c1cc(Br)c2c(c1)OCCO2 | -11.6
17 | Cc1cnn(C2CN(CC(O)c3ccccc3)C2)c1 (configuration not stated) | 27.4
18 | Cc1ccc(N2CCCC(N(C)Cc3cc(C)on3)C2)nn1 (configuration not stated) | -5.56
19 | CCCNC(=O)Cn1cc(C#N)c(=O)c2cc(Br)ccc21 | -8.09
20 | CCCNC(=O)c1cc(Br)c2c(c1)OCCO2 | -9.42
21 | Cn1nnc(C2(NC(=O)c3ccccc3)CCCC2)n1 | -8.79
22 | CCCC(C)Sc1nnnn1C1CCOCC1 (configuration not stated) | -12.8

Row | SMILES | cytotoxicity at 70.5 h [%]
23 | Cc1cc(C2CCCN2C(=O)NCc2cccnc2)on1 (configuration not stated) | -7.94
24 | CC(C)OCCSc1nnnn1C1CCOCC1 | -8.16
25 | Cc1oc(-c2ccco2)nc1CC(=O)NCC(C)(C)N(C)C | -8.24
26 | Cc1cc(C2CCCN2C(=O)NCc2cccnc2N(C)C)on1 (configuration not stated) | 23.2
27 | O=C(COC1CCCC1)N1CCCC1c1noc(C2CC2)n1 (configuration not stated) | -9.93
28 | CC(Sc1nnnn1C1CCOCC1)C(F)(F)F (configuration not stated) | -7.71
29 | CC(C)C(=O)Nc1ccc(C(O)Cn2nc(-c3cccs3)oc2=O)cc1 (configuration not stated) | 28.2
30 | COc1cc(CNC(C)c2cccc(Cl)c2)cc(OC)c1OC (configuration not stated) | -9.01
31 | COc1cccc(C2CCCN2C(=O)NCCCn2cccn2)c1 (configuration not stated) | -6.25
32 | NC(=O)C1CCCN1Cc1cccc(NC(=O)c2cccs2)c1 (configuration not stated) | 2.36
33 | O=C(NCCCn1cccn1)N1CCCC1c1ccsc1 (configuration not stated) | -9.1
34 | CCN(C)C(=O)C1(c2ccc(F)cc2F)CCC1 | 4.95
35 | COC(=O)c1cnc(/C=C/c2ccc(C(=O)O)cc2)s1 | 0.0314
36 | CC(=O)Nc1ccc(/C=C/c2ncc(C(=O)O)s2)cc1 | -1.46
37 | CC(C)C(C)NC(=O)CN1CCSCC1 (configuration not stated) | -2.11
38 | CCC(CC)NC(=O)CN1CCSCC1 | 3.72
39 | CC(C(=O)N1CCc2ccccc21)N1CCc2cncnc2C1 (configuration not stated) | -3.31
40 | CCNC(=O)CNC(=O)c1ccn(S(=O)(=O)c2ccc(C)cc2)c1 | 1.83
41 | Cc1nnc(NCCc2nc3ccc(F)cc3n2C)c(C#N)c1C | 1.4
42 | COc1ccccc1CCNC(=O)CNC1CCc2nc(C)nn2C1 (configuration not stated) | -0.271
43 | COC(=O)NCC(=O)NCC1(c2c(F)cccc2F)CCCC1 | 1.47
44 | Cn1c(CCNc2nccnc2C#N)nc2ccc(F)cc21 | 2.09

Row | SMILES | cytotoxicity at 70.5 h [%]
45 | O=C(CCC1CCCCC1)NS(=O)(=O)CC1CC1 | 14.7
46 | Cc1nc2n(n1)CC(NCC(=O)NCCCOC(C)C)CC2 (configuration not stated) | -0.276
47 | Cc1cc(=O)n(C)cc1NC(=O)Cc1ccc(C(F)(F)F)cc1 | 0.135
48 | O=C(Cc1cnn(-c2ccccc2)n1)NC1CCOCC1 | -0.727
49 | Cc1nc(C)c(C(=O)NCc2nc3cccc(C)c3n2C)o1 | -0.751
50 | CCNc1ncc(C(=O)Nc2nnc(N3CCCCC3)[nH]2)s1 | -2.41
51 | CC(C)(O)CSCCNC(=O)c1cc(F)ccc1F | 12.9
52 | CC(C)(O)CSCCNC(=O)c1ccc(F)cc1Cl | -2.51
53 | CN(Cc1ccccc1NCc1cscn1)C(=O)c1cccs1 | -3.79
54 | CC(C(=O)N1CCOCC1)N1CCc2cncnc2C1 (configuration not stated) | -4.71
55 | CCN1CCN(C(=O)C(C)N2CCc3cncnc3C2)CC1 (configuration not stated) | -4.42
56 | Cc1cnc(CN(Cc2ccc(C#N)cc2F)C2CCN(C)C2)o1 (configuration not stated) | -8.53
57 | O=C1NCCCCC1NS(=O)(=O)N1CCCCC1 (configuration not stated) | -10.6
58 | Cc1cc(C)c2c(c1)C(NC(=O)CSCc1ccncc1)CCO2 (configuration not stated) | -7.37
59 | CN(Cc1ccc(C#N)cc1)Cn1nccc1-c1cccnc1 | -4
60 | COc1ccccc1C(NC(=O)NC1CC1)c1noc(C)n1 (configuration not stated) | -9
61 | COc1ccccc1C(NC(=O)C1CCCC1)c1noc(C)n1 (configuration not stated) | 1.95
62 | COc1ccccc1C(NC(=O)C1CCC1)c1noc(C)n1 (configuration not stated) | -5.9
63 | CCC(Nc1ccc(Oc2cccc(C#N)c2)cc1)C(N)=O (configuration not stated) | -12.3
64 | Cn1nnc2cc(C(=O)NS(=O)(=O)c3ccc(F)cc3)ccc21 | -3.7
65 | OC[C@@H](O)CN(CCC(F)(F)F)c1ncc(Cl)cn1 | -4.91
66 | O=S(=O)(Nc1cn[nH]c1)c1ccc(F)c(Br)c1 | -4.68

Row | SMILES | cytotoxicity at 70.5 h [%]
67 | Cc1cnc(C(C)(C)NC(=O)NCc2ccc(C#N)cc2F)s1 | -5.64
68 | COc1ncccc1NC(=O)NC(C)(C)c1ncc(C)s1 | 16.5
69 | Cn1cnc2cc(C(=O)NS(=O)(=O)c3ccc(F)cc3)ccc21 | -5.36
70 | Cc1cnc(C(C)(C)NC(=O)NCc2ccon2)s1 | -9.99
71 | N#Cc1cccc(OCCCN2CCN(C(=O)c3ccoc3)CC2)c1 | -10
72 | OC(CN(Cc1ccccc1)Cc1cccnc1)c1ccco1 (configuration not stated) | 14.4
73 | CCc1nn(C)c(CC)c1CNC(=O)Nc1cccc([S+](C)[O-])c1 (configuration not stated) | 14.6
74 | CCc1nsc(NC2CC(=O)N(C3CC3)C2)n1 (configuration not stated) | -0.811
75 | COCC(C)(CCO)NC(=O)Nc1c(F)cccc1Br (configuration not stated) | 1.51
76 | CCCc1noc(CS(=O)(=O)CC(=O)NC(C)CCC)n1 (configuration not stated) | -5.83
77 | COCCCNC(=O)Nc1cccc2ncccc12 | 30.8
78 | CNS(=O)(=O)c1ccc(CNC(=O)c2cc(C)no2)cc1 | -11.9
79 | O=C(CCS(=O)(=O)C1CCCC1)NCCc1ccc2c(c1)OCCO2 | -2.36
80 | CCc1ncc(C(=O)N2CCn3c(CC)nnc3C2)s1 | -13.9
81 | CCc1nnc2n1CCN(C(=O)c1cnc(C3CC3)s1)C2 | -9.47
82 | CS(=O)(=O)CCC(=O)N(Cc1c(F)cccc1F)C1CCCC1 | 21
83 | CNS(=O)(=O)c1ccc(CNC(=O)c2cc(-c3ccccn3)no2)cc1 | -8.91
84 | CCC(CC)(CC(=O)OC)NC(=O)Nc1nnc(-c2ccccn2)s1 | 9.93
85 | Cc1cccc(C2CCCCN2C(=O)CCCS(C)(=O)=O)c1C (configuration not stated) | -9.93
86 | CNS(=O)(=O)CC(=O)N(Cc1c(F)cccc1F)C1CCCC1 | 1.88
87 | COc1ccc(CNC(C)c2cccc(Br)c2)c(OC)c1OC (configuration not stated) | 17.6
